Measurements taken from ChEMBL document CHEMBL1770064, “Penicisteroids A and B, antifungal and cytotoxic polyoxygenated steroids from the marine alga-derived endophytic fungus Penicillium chrysogenum QEN-24S” (Bioorg Med Chem Lett, 2011).
Values after ≈ are worked out from the molar mass of the structure shown. Active and inactive are the calls of the source. The calls are words filed in the database; no cut-off is given here.

Assays:
[1] = test system: Aspergillus niger; test: Antifungal activity against Aspergillus niger assessed as diameter of the zone of inhibition at 20 ug/disk by disk diffusion method; assay type: functional; details: for zone of inhibition at 20 µg/disc: read-out: DIZ
[2] = test system: Alternaria brassicae; test: Antifungal activity against Alternaria brassicae assessed as diameter of the zone of inhibition at 20 ug/disk by disk diffusion method; assay type: functional; details: for zone of inhibition at 20 µg/disc: read-out: DIZ
[3] = test system: HeLa; test: Cytotoxicity against human HeLa cells; assay type: functional, cell-based
[4] = test system: SW1990; test: Cytotoxicity against human SW1990 cells; assay type: functional, cell-based
[5] = test system: NCI-H460; test: Cytotoxicity against human NCI-H460 cells; assay type: functional, cell-based

SMILES	Activity [1]	Activity [2]	zone of inhibition at 20 µg/disc [1] [mm]	zone of inhibition at 20 µg/disc [2] [mm]	IC50 [3] [µg/mL]	IC50 [4] [µg/mL]	IC50 [5] [µg/mL]
CC(=O)O[C@H]1C[C@H]2[C@H]3[C@H]([C@@H](O)C[C@]2(C)[C@H]1[C@H](C)/C=C/[C@H](C)C(C)C)[C@@]1(C)CC[C@H](O)CC1=C[C@@H]3O	inactive	inactive	–	–	–	–	–
C[C@@H]1[C@H](O)[C@@H](C)/C=C/C=C/C=C/C=C/C=C/C=C/C=C/[C@H](O[C@@H]2O[C@H](C)[C@@H](O)[C@H](N)[C@@H]2O)C[C@@H]2O[C@](O)(C[C@@H](O)C[C@@H](O)[C@H](O)CC[C@@H](O)C[C@@H](O)CC(=O)O[C@H]1C)C[C@H](O)[C@H]2C(=O)O [AMPHOTERICIN B]	–	–	24	16	–	–	–
CC(=O)O[C@H]1C[C@H]2[C@@H]3[C@@H](O)[C@@H](O)[C@H]4C[C@@H](O)CC[C@]4(C)[C@H]3[C@@H](O)C[C@]2(C)[C@H]1[C@H](C)/C=C/[C@H](C)C(C)C	–	–	18	8	15 (≈ 29.6 µM)	31 (≈ 61.2 µM)	40 (≈ 78.9 µM)
CC(=O)O[C@H]1C[C@H]2[C@H]3[C@H]([C@@H](O)C[C@]2(C)[C@H]1[C@H](C)/C=C/[C@H](C)C(C)C)[C@@]1(C)CC[C@H](O)C[C@@H]1C(=O)[C@@H]3O [ANICEQUOL]	Active	–	–	6	–	–	–
